Reference: patent US10369134B2, “Nonracemic mixtures and uses thereof” (Sunovion Pharmaceuticals Inc., priority 2017, dated 2019)

Legend:
Assay type in all cases: in vivo
[1] = tested on: freely moving rats; assay: Sleep study of 85:15 (R:S-amisulpride) and racemic amisulpride (EEG/EMG); conditions: rat, p.o., R-amisulpride content of the total dose
Procedure: Groups in this study were as follows. Test compound was administered to rats in a cross-over design.
Vehicle or fixed ratio amisulpride dosing solutions were orally administered 10 min before the beginning of light phase (light phase: 10:00 AM to 10:00 PM). The individual dosing volume was 4 mL/kg. The individual dosing volume was calculated based on the animals' body weight measured on each experimental day. At least 1-week wash-out period after each treatment was provided.
The R-amisulpride and S-amisulpride were separately weighed. […]
A radio transmitter was implanted intraperitoneally in each anesthetized animal (sodium pentobarbital, 32.4 mg/kg, i.p. and medetomidine hydrochloride, 0.5 mg/kg, i.p.). […] Electromyograms (EMG) were recorded from the dorsal neck muscle. […] EEG/EMG was recorded in the home cages in a soundproof box using Dataquest A.R.T. software (Data Science International, New Brighton, Minn., USA) at a sampling rate of 500 Hz. […]
All data were expressed as a mean±SEM. Difference between 85/15 and 50/50 amisulpride at each dose in each sleep architecture (i.e. REM sleep duration, NREM sleep duration, and WAKE duration) during the first 4 hours after administration were assessed by a repeated measures one-way ANOVA, followed by post-hoc Bonferroni multiple comparison test. […]

[2] = tested on: healthy subjects; assay: REM suppression polysomnography (PSG) study of (R)-amisulpride; conditions: human; for decrease in the time spent in REM sleep / reduction of the portion of the night spent in REM: range is 90% confidence interval
Procedure: REM suppression was the biomarker used to determine clinically-significant levels of 5-HT7 antagonism and its pharmacodynamics. REM suppression was assessed by total time in minutes spent in REM sleep and by the latency in minutes to REM sleep. […] REM suppression in human volunteers is an established translational biomarker useful to identify doses for antidepressant effects in patients.
The primary endpoint was REM sleep suppression as determined at post dose time points in the measures of latency to REM sleep, REM sleep time in minutes, and percent decrease in REM sleep time relative to total sleep time.
The results presented in Tables 6A-6C were determined from an analysis of the date based on a linear mixed model with terms for treatment, period, and treatment sequence as fixed effects, respective baseline PSG value as a continuous covariate, and treatment-by-baseline PSG interaction, and subject nested within sequence as a random effect, the Kenward and Roger correction for the degrees of freedom and an unstructured covariance structure to model the intrasubject correlation. The abbreviations used in Tables 6A-6C are as follows: PSG=polysomnography; CI=confidence interval; LS=least-squares; REM=rapid eye movement; SE=standard error.

[3] = tested on: rat; assay: Forced Swim test; conditions: 0.5 mg/kg i.p. at 24, 5 and 1 h before swim test, mean ± SE, vehicle 168±12
Procedure: The Forced Swim test (FST) is an indicator of the antidepressant-like activity of a test compound. The rat will swim before “giving up” and becoming immobile. A compound with antidepressant-like activity will decrease the time the rat is immobile.
The animals (n=90) were divided into five groups. […] In the training session, each animal was gently placed into the plastic cylinder containing 5.8 L of water set at 25±1° C. Fifteen minutes after the beginning of the training session, the animal was removed from the water. The dosing solutions were administered 15 minutes after finishing of the training.
The swim test was performed for 5 minutes in the same manner as the training session. In the swim test, the behavior of each animal was horizontally recorded using a video camera. After the swim test, animals were immediately sacrificed by inhalation of carbon dioxide.
The swim movies were handled in a blind manner to ensure that the person who measured the immobility time had no information on the treatment. An animal was judged to be immobile whenever it remained floating in the water without moving its body or forepaws except for the slight movement to maintain its posture. The total time for which the animal remained immobile was defined as the immobility time. An observer blinded to the doses measured the immobility times. The immobility time of each animal was measured to one decimal place and rounded to a whole number. Immobility time was expressed in units of seconds. In each series the means of immobility time were calculated and rounded to a whole number using. The mean and standard error (SE) for each group were calculated using the data obtained from three experimental series and rounded to a whole number. All results are represented as the mean±SE.
The data of imipramine were analyzed using t-test with a two-sided significance level of 5% (p<0.05).

Compound: CCN1CCC[C@@H]1CNC(=O)c1cc(S(=O)(=O)CC)c(N)cc1OC [(R)-amisulpride, R-4-Amino-N-[(1-ethyl-2-pyrrolidinyl)methyl]-5-(ethylsulfonyl)-2-methoxybenzamide]
- dose of R-amisulpride at which REM sleep suppression was saturated [1]: ≥ 50 mg/kg
- decrease in REM sleep ([2]; 340 mg (FIG. 15C)): about 20 minutes
- decrease in REM sleep ([2]; 600 mg (FIG. 15C)): about 30 minutes
- subjects who reported adverse events ([2]; of the 13 subjects dosed with 600 mg): 3 subjects
- suppression of REM sleep ([2]; single dose 600 mg): clinically meaningful and statistically significant suppression of REM sleep
- vital signs and ECGs ([2]; single oral dose): normal
- Latency to REM Sleep, LS Mean Difference (SE) from placebo ([2]; single oral dose 340 mg, n=20): 28.23 (9.82) Minutes
- REM Percent, LS Mean Difference (SE) from placebo ([2]; single oral dose 340 mg, n=20): −4.15 (1.09) %
- REM Time, LS Mean Difference (SE) from placebo ([2]; single oral dose 340 mg, n=20): −18.45 (4.91) Minutes
- REM Percent, LS Mean (SE) ([2]; single oral dose 340 mg, n=20, placebo 25.69 (0.92)): 21.55 (0.92) %
- Latency to REM Sleep, LS Mean (SE) ([2]; single oral dose 340 mg, n=20, placebo 77.03 (9.42)): 105.25 (9.42) Minutes
- REM Time, LS Mean (SE) ([2]; single oral dose 340 mg, n=20, placebo 110.05 (4.69)): 91.60 (4.69) Minutes
- decrease in the time spent in REM sleep ([2]; single oral dose 340 mg): 10 to 27 min
- reduction of the portion of the night spent in REM ([2]; single oral dose 340 mg): 2-6 percentage points
- Latency to REM Sleep, LS Mean Difference (SE) from placebo ([2]; single oral dose 600 mg, n=13): 20.30 (9.39) Minutes
- REM Percent, LS Mean Difference (SE) from placebo ([2]; single oral dose 600 mg, n=13): −6.24 (1.45) %
- REM Time, LS Mean Difference (SE) from placebo ([2]; single oral dose 600 mg, n=13): −31.39 (7.99) Minutes
- REM Percent, LS Mean (SE) ([2]; single oral dose 600 mg, n=13, placebo 24.30 (1.14)): 18.06 (1.14) %
- Latency to REM Sleep, LS Mean (SE) ([2]; single oral dose 600 mg, n=13, placebo 89.06 (7.71)): 109.35 (7.71) Minutes
- REM Time, LS Mean (SE) ([2]; single oral dose 600 mg, n=13, placebo 107.98 (5.65)): 76.59 (5.65) Minutes
- decrease in the time spent in REM sleep ([2]; single oral dose 600 mg): 18 to 45 min
- reduction of the portion of the night spent in REM ([2]; single oral dose 600 mg): 4-9 percentage points
- tolerability ([2]; single oral dose 340 or 600 mg): well tolerated
- immobility time [3]: 124 ± 12 s
